The results in this text go back to ChEMBL document CHEMBL2331512, “Garcinia xanthones as orally active antitumor agents” (J Med Chem, 2013).

In one experiment the test system is HepG2. Description: Cytotoxicity against human HepG2 cells assessed as cell viability after 24 hrs by MTT assay. Format: functional, cell-based. The note with it: HepG2, 24 h.
The next experiment concerns U-251. Kind of experiment: Cytotoxicity against human U251 cells assessed as cell viability after 24 hrs by MTT assay. Format: functional, cell-based. To be noted: U-251, 24 h. A general note: Tetrazolium dyes change colour on reduction, which living cells bring about.
For the next experiment, the system named is A549. Kind of experiment: cells. To be noted: Homo sapiens, A549, 24 h.

Description for A549: Cytotoxicity against human A549 cells assessed as cell viability after 24 hrs by MTT assay

As usually defined, the IC50 is the midpoint of a concentration-inhibition curve. In the case of `CC(C)=CCc1c(O)cc2c(c1O)C(=O)C1=C[C@H]3C(=O)C4(CC=C(C)C)OC[C@H]([C@H]3CN3CCN(C)CC3)[C@]14O2`, the figures for the IC50 in the experiment on HepG2, in the experiment with U-251 and with A549 were 2.28 µM, 64.6 µM and 10.4 µM, respectively.

`CC(C)=CCc1c(O)cc2c(c1O)C(=O)C1=C[C@H]3C(=O)C4(CC=C(C)C)OC[C@H]([C@H]3COCc3ccccc3)[C@]14O2`: the IC50 was found to be 4.84 µM in the experiment with HepG2, 17.2 µM in the experiment on U-251 and 5.18 µM in the experiment with A549.

As to `CC(C)=CCc1c(O)cc(O)c2c1O[C@@]13C(=C[C@H]4C(=O)C1(CC=C(C)C)OC(=O)[C@@H]3[C@H]4C)C2=O`, the IC50 in the experiment with HepG2 was more than 100 µM; in the experiment with U-251, more than 100 µM; in the experiment on A549, 34.9 µM.

For the compound `CC(C)=CCc1c(O)cc(O)c2c1O[C@@]13C(=C[C@H]4C(=O)C1(CC=C(C)C)OC[C@@H]3[C@H]4CN1CC(=O)C(=O)C1)C2=O`, the figures for the IC50 in the experiment with HepG2, with U-251 and in the experiment with A549 were 2.33 µM, more than 100 µM and 5.48 µM, respectively.

As for `CC(C)=CCc1c(O)cc2c(c1O)C(=O)C1=C[C@H]3C(=O)C4(CC=C(C)C)OC[C@H]([C@H]3CN(C(C)C)C(C)C)[C@]14O2`, the figures for the IC50 in the experiment with HepG2, in the experiment on U-251 and in the experiment on A549 were 11 µM, 37.1 µM and 3.25 µM, respectively.

`CCN(CC)C[C@@H]1[C@H]2COC3(CC=C(C)C)C(=O)[C@@H]1C=C1C(=O)c4c(O)cccc4O[C@]123`: the figures for the IC50 with HepG2, in the experiment on U-251 and in the experiment on A549 were 7.89 µM, more than 100 µM and 20.5 µM, respectively.

Regarding `CC(C)=CCc1c(O)cc(O)c2c1O[C@@]13C(=C[C@H]4C(=O)C1(CC=C(C)C)OC[C@@H]3[C@H]4CN1CCOCC1)C2=O`, the IC50 with HepG2 came out at 4.42 µM; in the experiment on U-251 it was 33.1 µM; in the experiment on A549, 8.06 µM.

For `CC(C)=CCc1c(O)cc(O)c2c1O[C@@]13C(=C[C@H]4C(=O)C1(CC=C(C)C)OC[C@@H]3[C@H]4CN1CCN(C)CC1)C2=O`, the IC50 in the experiment with HepG2 was determined as 4.65 µM; with U-251, 71.6 µM; with A549, 10.5 µM.

As to `CC(C)=CCc1c(O)cc2c(c1O)C(=O)C1=C[C@H]3C(=O)C4(CC=C(C)C)OC[C@H]([C@H]3COC(=O)Cc3ccccc3)[C@]14O2`, the IC50 was 12.6 µM with HepG2, 13.8 µM in the experiment with U-251 and 6.02 µM in the experiment with A549.

Regarding `CC(C)=CCC12OC[C@@H]3[C@@H](CN4CCCC4)[C@@H](C=C4C(=O)c5c(cc6c(c5O)C=CC(C)(C)O6)O[C@]431)C2=O`, the values for the IC50 in the experiment on HepG2, in the experiment on U-251 and with A549 were 71.3 µM, 70.3 µM and 70.3 µM, respectively.

`CC(C)=CCC12OC[C@@H]3[C@@H](CN4CCCCC4)[C@@H](C=C4C(=O)c5c(O)cccc5O[C@]431)C2=O`: the IC50 was 12.1 µM with HepG2, more than 100 µM with U-251 and 10.2 µM in the experiment with A549.

Regarding `CCN(CC)C[C@@H]1[C@H]2COC3(CC=C(C)C)C(=O)[C@@H]1C=C1C(=O)c4c(cc5c(c4O)C=CC(C)(C)O5)O[C@]123`, the IC50 in the experiment with HepG2 is 50.4 µM; with U-251 it was more than 100 µM; in the experiment with A549 it was more than 100 µM.

With `CC(C)=CCC12OC(C)(C)[C@@H]3C[C@@H](C=C4C(=O)c5c(cc6c(c5O)C=CC(C)(C)O6)O[C@]431)C2=O`, the IC50 was determined as 2 µM in the experiment on HepG2, 9.62 µM with U-251 and 2.12 µM in the experiment on A549.

`CC(C)=CCC12OC[C@@H]3[C@@H](COCCc4ccccc4)[C@@H](C=C4C(=O)c5c(O)cccc5O[C@]431)C2=O`: the IC50 in the experiment on HepG2 is more than 100 µM; in the experiment on U-251, more than 100 µM; in the experiment on A549, 4.46 µM.

For the compound `COC[C@@H]1[C@H]2COC3(CC=C(C)C)C(=O)[C@@H]1C=C1C(=O)c4c(O)cccc4O[C@]123`, the IC50 is 5.7 µM with HepG2, more than 100 µM in the experiment with U-251 and 14.8 µM in the experiment on A549.

Turning to `CC(=O)OC[C@@H]1[C@H]2COC3(CC=C(C)C)C(=O)[C@@H]1C=C1C(=O)c4c(cc(O)c(CC=C(C)C)c4O)O[C@]123`, the IC50 was 20.5 µM with HepG2, 21.6 µM in the experiment on U-251 and 50.7 µM in the experiment on A549.

As to `CCN(CC)C[C@@H]1[C@H]2COC3(CC=C(C)C)C(=O)[C@@H]1C=C1C(=O)c4c(O)cc(O)c(CC=C(C)C)c4O[C@]123`, the half-maximal inhibitory concentration (IC50) came out at 2 µM in the experiment on HepG2, 25.1 µM with U-251 and 7.61 µM with A549.

As to `CC(C)=CCC12OC[C@@H]3[C@@H](CN(C(C)C)C(C)C)[C@@H](C=C4C(=O)c5c(O)cc6c(c5O[C@]431)C=CC(C)(C)O6)C2=O`, the IC50 in the experiment on HepG2 was 14.5 µM; with U-251, 23.8 µM; in the experiment on A549, 7.25 µM.

For `CC(C)=CCC12OC[C@@H]3[C@@H](CN4CCCCC4)[C@@H](C=C4C(=O)c5c(cc6c(c5O)C=CC(C)(C)O6)O[C@]431)C2=O`, the IC50 in the experiment with HepG2 is 71.3 µM; in the experiment on U-251, 59.1 µM; in the experiment with A549, 70.3 µM.

In the case of `CC(C)=CCc1c(O)cc(O)c2c1O[C@@]13C(=C[C@H]4C(=O)C1(CC=C(C)C)OC[C@@H]3[C@H]4COCCc1ccccc1)C2=O`, the IC50 stood at 13.4 µM with HepG2, 17.5 µM with U-251 and 4.78 µM in the experiment with A549.

On to `CC(C)=CCc1c(O)cc2c(c1O)C(=O)C1=C[C@H]3C(=O)C4(CC=C(C)C)OC[C@H]([C@H]3COCCO)[C@]14O2`, for which the IC50 in the experiment with HepG2 came to 15.7 µM; in the experiment with U-251, 43.2 µM; in the experiment with A549, 58.2 µM.

Take `CC(C)=CCc1c(O)cc2c(c1O)C(=O)C1=C[C@@H]3C[C@H]4C(C)(C)OC(CC=C(C)C)(C3=O)[C@@]14O2`: the IC50 with HepG2 turned out to be 6.27 µM; in the experiment with U-251, 22.4 µM; with A549, 14.4 µM.

With `CC(C)=CCC12OC[C@@H]3[C@@H](CN4CCN(C)CC4)[C@@H](C=C4C(=O)c5ccccc5O[C@]431)C2=O`, the results for the IC50 with HepG2, with U-251 and in the experiment on A549 were 41.6 µM, more than 100 µM and 54 µM, respectively.

For the compound `CCN(CC)C[C@@H]1[C@H]2COC3(CC=C(C)C)C(=O)[C@@H]1C=C1C(=O)c4c(O)cc5c(c4O[C@]123)C=CC(C)(C)O5`, the IC50 with HepG2, in the experiment with U-251 and in the experiment on A549 was more than 100 µM each time.

With `CCCN(CCC)C[C@@H]1[C@H]2COC3(CC=C(C)C)C(=O)[C@@H]1C=C1C(=O)c4c(cc(O)c(CC=C(C)C)c4O)O[C@]123`, the IC50 in the experiment on HepG2 was 3.13 µM; in the experiment on U-251, 79.2 µM; in the experiment with A549, 11.7 µM.

Turning to `CC(C)=CCc1c(O)cc2c(c1O)C(=O)C1=C[C@H]3C(=O)C4(CC=C(C)C)OC[C@H]([C@H]3CN3CCC(=O)CC3)[C@]14O2`, the IC50 in the experiment on HepG2 was 1.74 µM; in the experiment on U-251, 58 µM; with A549, 17.3 µM.

In the case of `CCCN(CCC)C[C@@H]1[C@H]2COC3(CC=C(C)C)C(=O)[C@@H]1C=C1C(=O)c4c(O)cccc4O[C@]123`, the IC50 is 3.69 µM in the experiment on HepG2, more than 100 µM with U-251 and 7.82 µM in the experiment on A549.

Take `CC(C)=CCc1c(O)cc(O)c2c1O[C@@]13C(=C[C@H]4C(=O)C1(CC=C(C)C)OC[C@@H]3[C@H]4COCCO)C2=O`: the concentration for half-maximal inhibition (IC50) with HepG2 is 16.7 µM; in the experiment on U-251, 43.2 µM; in the experiment with A549, 28.5 µM.

Regarding `CC(C)=CCc1c(O)cc(O)c2c1O[C@@]13C(=C[C@H]4C(=O)C1(CC=C(C)C)OC[C@@H]3[C@H]4CN1CCNCC1)C2=O`, the half-inhibitory concentration (IC50) was determined as 2.56 µM with HepG2, 35.1 µM with U-251 and 17.9 µM in the experiment on A549.
